Experimental findings from patent US8273754B2, “Substituted 1H-pyrazolo[3,4-D]pyrimidine-6-amine compounds” (ArQule, Inc., priority 2008, dated 2012) are described below.

Each structure is given as a SMILES string. Like-named read-outs stand apart in the source and are kept apart here.

The test has as its system cancer cells. As to the kind of experiment: MTS cell growth inhibition assay (72 hours). Type of test: cell-based. How it is done: Cells were maintained at 37° C., 5% CO2 in DMEM media supplemented with 1% fetal bovine serum, penicillin/streptomycin and fungizone (Invitrogen). Cells were seeded into 96-well tissue culture plates at 3000 per well and cultured at 37° C. for 18 hours. Test compounds were dissolved and diluted to 300× in DMSO then further diluted 1:40 in DMEM before addition to cells (1:7.5 dilution). Cells were incubated with test compounds for 72 hours followed by incubation with tetrazolium compound (3-(4,5-dimethylthiazol-2-yl)-5-(3-carboxymethoxyphenyl)-2-(4-sulfophenyl)-2H-tetrazolium, inner salt; MTS) and the electron coupling reagent, phenazine methosulfate (PMS) for 4 hours. […] The ability of compounds to inhibit cell growth in this assay is correlated with the reduction of dehydrogenase enzyme activity found in metabolically active cells. The measurement of the absorbance of the formazan was assessed using an ENVISION™ (Perkin Elmer) microplate reader at 492 nm. The calculated IC50 value is the concentration of the test compound that causes a 50% decrease in the absorbance. […] A=>79% inhibition, B=>50 to 79% inhibition, C=<50% inhibition.

Setting [1] is: Homo sapiens, DLD-1, 72 h, DLD-1 cells, read-out: DLD-1 MTS 72 hr at 10 μM.
[2] abbreviates: Homo sapiens, KATO III, 72 h, KATO III cells, read-out: KATO III MTS 72 hr at 10 μM.
Setting [3] is: Homo sapiens, MDA-MB-231, 72 h, MDA-MB-231 cells, read-out: MDA-MB-231 MTS 72 hr at 10 μM.
[4] abbreviates: Homo sapiens, NCI-H1299, 72 h, NCI-H1299 cells, read-out: NCI-H1299 MTS 72 hr at 10 μM.
Setting [5] is: PaCa-2, 72 h, PACA-2 cells, read-out: PACA-2 MTS 72 hr at 10 μM.

As to `COc1ccccc1Oc1cccc(S(=O)(=O)N2CC(Nc3nc(N)nc4[nH]ncc34)Cc3ccccc32)c1` (stereo not drawn) [Compound 77, N4-(1-(3-(2-methoxyphenoxy)phenylsulfonyl)-1,2,3,4-tetrahydroquinolin-3-yl)-1H-pyrazolo[3,4-d]pyrimidine-4,6-diamine], the inhibition at 10 µM was less than 50% under setting [1]; 50 to 79% under setting [2]; less than 50% under setting [3]; less than 50% under setting [4]; less than 50% under setting [5].
As for `Nc1nc(NC2Cc3ccccc3N(S(=O)(=O)c3cccc(Cl)c3F)C2)c2cn[nH]c2n1` (stereo not drawn) [Compound 78, N4-(1-(3-chloro-2-fluorophenylsulfonyl)-1,2,3,4-tetrahydroquinolin-3-yl)-1H-pyrazolo[3,4-d]pyrimidine-4,6-diamine], the inhibition at 10 µM is, setting by setting: under setting [1], less than 50%; under setting [2], less than 50%; under setting [3], less than 50%; under setting [4], less than 50%; under setting [5], less than 50%.
For the compound `Nc1nc(NC2Cc3ccccc3N(C(=O)c3cccs3)C2)c2cn[nH]c2n1` (stereo not drawn) [Compound 79, (3-(6-amino-1H-pyrazolo[3,4-d]pyrimidin-4-ylamino)-3,4-dihydroquinolin-1(2H)-yl)(thiophen-2-yl)methanone], the inhibition at 10 µM reads like this: under setting [1], greater than 79%; under setting [2], greater than 79%; under setting [3], 50 to 79%; under setting [4], less than 50%; under setting [5], greater than 79%.
`Nc1nc(NC2Cc3ccccc3N(C(=O)C3CC3)C2)c2cn[nH]c2n1` (stereo not drawn) [Compound 80, (3-(6-amino-1H-pyrazolo[3,4-d]pyrimidin-4-ylamino)-3,4-dihydroquinolin-1(2H)-yl)(cyclopropyl)methanone]: the inhibition at 10 µM reads like this: under setting [1], less than 50%; under setting [2], less than 50%; under setting [3], less than 50%; under setting [4], less than 50%; under setting [5], less than 50%.
Take `Nc1nc(NC2Cc3ccccc3N(C(=O)c3ccccc3Br)C2)c2cn[nH]c2n1` (stereo not drawn) [Compound 81, (3-(6-amino-1H-pyrazolo[3,4-d]pyrimidin-4-ylamino)-3,4-dihydroquinolin-1(2H)-yl)(2-bromophenyl)methanone]: the inhibition at 10 µM is 50 to 79% under setting [1]; greater than 79% under setting [2]; greater than 79% under setting [3]; less than 50% under setting [4]; 50 to 79% under setting [5].
Regarding `Cc1cccc(C(=O)N2CC(Nc3nc(N)nc4[nH]ncc34)Cc3ccccc32)c1` (stereo not drawn) [Compound 82, (3-(6-amino-1H-pyrazolo[3,4-d]pyrimidin-4-ylamino)-3,4-dihydroquinolin-1(2H)-yl)(m-tolyl)methanone], the inhibition at 10 µM reads like this: under setting [1], less than 50%; under setting [2], less than 50%; under setting [3], less than 50%; under setting [4], less than 50%; under setting [5], less than 50%.
Consider `Nc1nc(NC2Cc3ccccc3N(C(=O)C(=O)c3c[nH]c4ccccc34)C2)c2cn[nH]c2n1` (stereo not drawn) [Compound 83, 1-(3-(6-amino-1H-pyrazolo[3,4-d]pyrimidin-4-ylamino)-3,4-dihydroquinolin-1(2H)-yl)-2-(1H-indol-3-yl)ethane-1,2-dione], for which the inhibition at 10 µM was less than 50% under setting [1]; less than 50% under setting [2]; less than 50% under setting [3]; less than 50% under setting [4]; less than 50% under setting [5].
As to `Nc1nc(NC2Cc3ccccc3N(C(=O)C3CCCCC3)C2)c2cn[nH]c2n1` (stereo not drawn) [Compound 84, (3-(6-amino-1H-pyrazolo[3,4-d]pyrimidin-4-ylamino)-3,4-dihydroquinolin-1(2H)-yl)(cyclohexyl)methanone], the inhibition at 10 µM runs as follows: under setting [1], less than 50%; under setting [2], less than 50%; under setting [3], less than 50%; under setting [4], less than 50%; under setting [5], less than 50%.
Turning to `Nc1nc(NC2Cc3ccccc3N(C(=O)COc3ccccc3)C2)c2cn[nH]c2n1` (stereo not drawn) [Compound 85, 1-(3-(6-amino-1H-pyrazolo[3,4-d]pyrimidin-4-ylamino)-3,4-dihydroquinolin-1(2H)-yl)-2-phenoxyethanone], the inhibition at 10 µM reads like this: under setting [1], less than 50%; under setting [2], less than 50%; under setting [3], less than 50%; under setting [4], less than 50%; under setting [5], less than 50%.
Take `Nc1nc(NC2Cc3ccccc3N(C(=O)c3ccc(F)cc3F)C2)c2cn[nH]c2n1` (stereo not drawn) [Compound 86, (3-(6-amino-1H-pyrazolo[3,4-d]pyrimidin-4-ylamino)-3,4-dihydroquinolin-1(2H)-yl)(2,4-difluorophenyl)methanone]: the inhibition at 10 µM reads like this: under setting [1], less than 50%; under setting [2], less than 50%; under setting [3], less than 50%; under setting [4], less than 50%; under setting [5], less than 50%.
Take `Nc1nc(NC2Cc3ccccc3N(C(=O)Cc3ccccc3)C2)c2cn[nH]c2n1` (stereo not drawn) [Compound 87, 1-(3-(6-amino-1H-pyrazolo[3,4-d]pyrimidin-4-ylamino)-3,4-dihydroquinolin-1(2H)-yl)-2-phenylethanone]: the inhibition at 10 µM runs as follows: under setting [1], less than 50%; under setting [2], less than 50%; under setting [3], less than 50%; under setting [4], less than 50%; under setting [5], less than 50%.
On to `CCCCCCc1ccc(C(=O)N2CC(Nc3nc(N)nc4[nH]ncc34)Cc3ccccc32)cc1` (stereo not drawn) [Compound 88, (3-(6-amino-1H-pyrazolo[3,4-d]pyrimidin-4-ylamino)-3,4-dihydroquinolin-1(2H)-yl)(4-hexylphenyl)methanone], for which the inhibition at 10 µM was 50 to 79% under setting [1]; less than 50% under setting [2]; less than 50% under setting [3]; less than 50% under setting [4]; less than 50% under setting [5].
Turning to `Nc1nc(NC2Cc3ccccc3N(C(=O)c3c(F)cc(F)cc3F)C2)c2cn[nH]c2n1` (stereo not drawn) [Compound 89, (3-(6-amino-1H-pyrazolo[3,4-d]pyrimidin-4-ylamino)-3,4-dihydroquinolin-1(2H)-yl)(2,4,6-trifluorophenyl)methanone], the inhibition at 10 µM was less than 50% under setting [1]; less than 50% under setting [2]; less than 50% under setting [3]; less than 50% under setting [4]; less than 50% under setting [5].
For the compound `Nc1nc(NC2Cc3ccccc3N(C(=O)c3cc(Cl)cc(Cl)c3)C2)c2cn[nH]c2n1` (stereo not drawn) [Compound 90, (3-(6-amino-1H-pyrazolo[3,4-d]pyrimidin-4-ylamino)-3,4-dihydroquinolin-1(2H)-yl)(3,5-dichlorophenyl)methanone], the inhibition at 10 µM is, setting by setting: under setting [1], greater than 79%; under setting [2], greater than 79%; under setting [3], greater than 79%; under setting [4], greater than 79%; under setting [5], greater than 79%.
For `Cc1c(C(=O)N2CC(Nc3nc(N)nc4[nH]ncc34)Cc3ccccc32)oc2ccccc12` (stereo not drawn) [Compound 91, (3-(6-amino-1H-pyrazolo[3,4-d]pyrimidin-4-ylamino)-3,4-dihydroquinolin-1(2H)-yl)(3-methylbenzofuran-2-yl)methanone], the inhibition at 10 µM was 50 to 79% under setting [1]; greater than 79% under setting [2]; greater than 79% under setting [3]; less than 50% under setting [4]; greater than 79% under setting [5].
As to `Nc1nc(NC2Cc3ccccc3N(C(=O)c3cc(F)cc(F)c3F)C2)c2cn[nH]c2n1` (stereo not drawn) [Compound 92, (3-(6-amino-1H-pyrazolo[3,4-d]pyrimidin-4-ylamino)-3,4-dihydroquinolin-1(2H)-yl)(2,3,5-trifluorophenyl)methanone], the inhibition at 10 µM under setting [1] was greater than 79%; the inhibition at 10 µM under setting [2] is greater than 79%; the inhibition at 10 µM under setting [3] was greater than 79%; the inhibition at 10 µM under setting [4] is 50 to 79%; the inhibition at 10 µM under setting [5] is greater than 79%.
In the case of `Nc1nc(NC2Cc3ccccc3N(C(=O)COc3cccc(Cl)c3)C2)c2cn[nH]c2n1` (stereo not drawn) [Compound 93, 1-(3-(6-amino-1H-pyrazolo[3,4-d]pyrimidin-4-ylamino)-3,4-dihydroquinolin-1(2H)-yl)-2-(3-chlorophenoxy)ethanone], the inhibition at 10 µM by setting is: under setting [1], less than 50%; under setting [2], less than 50%; under setting [3], less than 50%; under setting [4], less than 50%; under setting [5], less than 50%.
Consider `CC(C)(C)CC(=O)N1CC(Nc2nc(N)nc3[nH]ncc23)Cc2ccccc21` (stereo not drawn) [Compound 94, 1-(3-(6-amino-1H-pyrazolo[3,4-d]pyrimidin-4-ylamino)-3,4-dihydroquinolin-1(2H)-yl)-3,3-dimethylbutan-1-one], for which the inhibition at 10 µM is less than 50% under setting [1]; less than 50% under setting [2]; less than 50% under setting [3]; less than 50% under setting [4]; less than 50% under setting [5].
